Four compounds from US7897778B2, “Benzamide compounds” (AstraZeneca, priority 2004, dated 2011) can be followed below.

The structures appear in SMILES notation.

One assay has as its target T1, recombinant human HDAC1 (Homo sapiens, UniProt Q13547).
T1 construct: FLAG (C); made in house; host or cells: Hi5 insect cells
The experiment in a line: In vitro enzyme assay of recombinant HDAC1. The class given is biochemical. To be noted: recombinant human HDAC1 produced in Hi5 insect cells; acetylated histone H4 peptide, Fluor de Lys; read-out: Test (a) IC50. As to the method: (a) In Vitro Enzyme Assay of recombinant HDAC1
HDAC inhibitors were screened against recombinant human HDAC1 produced in Hi5 insect cells. The enzyme was cloned with a FLAG tag at the C-terminal of the gene and affinity purified using Anti-FLAG M2 agarose from SIGMA (A2220).
The deacetylase assays were carried out in a 50 μl reaction. HDAC1 (75 ng of enzyme) diluted in 15 μl of reaction buffer (25 mM Tris HCl (pH 8), 137 mM NaCl, 2.7 mM KCl, 1 mM MgCl2) was mixed with either buffer alone (10 μl) or buffer containing compound (10 μl) for 30 minutes at ambient temperature. The 25 μM acetylated histone H4 peptide (KI 174 Biomol) diluted in 25 μl of buffer was then added to the reaction and incubated for one hour at ambient temperature. The reaction was stopped by addition of an equal volume (50 μl) Fluor de Lys developer (Biomol) containing Trichostatin A at 2 μM. The reaction was allowed to develop for 30 minutes at ambient temperature and then fluorescence measured at an excitation wavelength of 360 nm and an emission wavelength of 465 nm. The IC50 values for HDAC enzyme inhibitors were determined by performing dose response curves with individual compounds and determining the concentration of inhibitor producing fifty percent decrease in the maximal signal (diluent control).

The subject of the next assay is HCT116 cells. Briefly: In vitro assay of inhibition of proliferation in whole cells (MTS). The class given is cell-based. To be noted: Homo sapiens, HCT-116, 72 hours treatment, read-out: Test (b) IC50. As to the method:
(b) In Vitro Assay of Inhibition of Proliferation in Whole Cells
Inhibition of proliferation in whole cells was assayed using the Promega cell titer 96 aqueous proliferation assay (Promega #G5421). The HCT116 cells were seeded in 96 well plates at 1×10^3 cells/well, and allowed to adhere overnight. They were treated with inhibitors for 72 hours. The 20 μl of the tetrazolium dye MTS was added to each well and the plates were reincubated for 3 hours. Absorbance was then measured on a 96 well plate reader at […]. The IC50 values for HDAC inhibitors were determined by performing dose response curves with individual compounds and determining the concentration of inhibitor producing fifty percent decrease in maximal signal (diluent control).

T1 sequence (Q13547 whole entry): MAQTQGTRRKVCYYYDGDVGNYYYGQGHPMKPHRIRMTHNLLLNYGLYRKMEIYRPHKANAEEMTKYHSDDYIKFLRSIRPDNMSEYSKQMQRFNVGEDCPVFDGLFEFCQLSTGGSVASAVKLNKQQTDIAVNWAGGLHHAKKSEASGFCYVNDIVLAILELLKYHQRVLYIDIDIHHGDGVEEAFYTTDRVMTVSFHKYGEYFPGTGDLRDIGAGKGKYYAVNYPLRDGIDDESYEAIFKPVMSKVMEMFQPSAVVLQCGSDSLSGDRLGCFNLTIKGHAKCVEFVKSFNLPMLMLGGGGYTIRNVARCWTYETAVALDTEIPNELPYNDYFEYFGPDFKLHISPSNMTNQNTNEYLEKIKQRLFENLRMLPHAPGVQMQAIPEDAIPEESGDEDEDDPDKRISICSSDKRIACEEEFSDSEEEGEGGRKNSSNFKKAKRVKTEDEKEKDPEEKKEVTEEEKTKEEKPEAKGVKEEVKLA

Regarding `N#Cc1cc(CN2CCC(c3ccccn3)C2)cnc1-c1ccc(C(=O)Nc2ccccc2N)cc1` (centres unmarked) [2 (10), N-(2-aminophenyl)-4-{3-cyano-5-[(3-pyridin-2-ylpyrrolidin-1-yl)methyl]pyridin-2-yl}benzamide], the IC50 (in general, the concentration at which inhibition is half-maximal) at recombinant human HDAC1 was 3 nM; in the assay on HCT116 cells it was 211 nM.
The corresponding values for `C[C@@H]1CC[C@@H](C)N1Cc1cnc(-c2ccc(C(=O)Nc3ccccc3N)cc2)c(C#N)c1` [2 (12), N-(2-aminophenyl)-4-(3-cyano-5-{[(2R,5R)-2,5-dimethylpyrrolidin-1-yl]methyl}pyridin-2-yl)benzamide] are 6 nM and 218 nM.
As for `CC(C)N(C)Cc1cnc(-c2ccc(C(=O)Nc3ccccc3N)cc2)c(C#N)c1` [5 (15), N-(2-aminophenyl)-4-(3-cyano-5-{[isopropyl(methyl)amino]methyl}pyridin-2-yl)benzamide], the IC50 stood at 12 nM at recombinant human HDAC1 and 287 nM in the assay with HCT116 cells.
Consider `N#Cc1cccnc1-c1ccc(C(=O)Nc2ccccc2N)cc1` [Example 1, N-(2-aminophenyl)-4-(3-cyanopyridin-2-yl)benzamide], for which the IC50 turned out to be 13 nM at recombinant human HDAC1 and 289 nM in the assay on HCT116 cells.
